# According to PubChem BioAssay (NCI):
# “And” between values parts separate entries of the source, which are not always exact repeats. Identical values can stand only once.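 Assay format: 96-well plates, 48-hour exposure. At the GI50, growth is halved. At the TGI there is no net growth.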
# Columns and labels:
# Assay in all cases: NCI-60 cell line screen, 48 h
# [1] = tested on: MDA-MB-435
# [2] = tested on: HS 578T breast
# [3] = tested on: T-47D breast
# [4] = tested on: HOP-92 NSCLC
# [5] = tested on: NCI/ADR-RES ovarian
# [6] = tested on: PC-3 prostate
# [7] = tested on: DU-145 prostate
# [8] = tested on: MALME-3M melanoma
# [9] = tested on: MCF7 breast
# [10] = tested on: NCI-H522 lung
Structure (SMILES),GI50 [1],TGI [1],GI50 [2],TGI [2],GI50 [3],TGI [3],GI50 [4],TGI [4],GI50 [5],TGI [5],GI50 [6],TGI [6],GI50 [7],TGI [7],GI50 [8],TGI [8],GI50 [9],TGI [9],GI50 [10] [µM],TGI [10]
NS(=O)(=O)c1ccc(N=Nc2c(O)[nH]c3ccc(C(=O)NCCc4cnc[nH]4)cc23)cc1,> 25 µM,> 25 µM,> 25 µM,> 25 µM,> 25 µM,> 25 µM,> 25 µM,> 25 µM,> 25 µM,> 25 µM,> 25 µM,> 25 µM,> 25 µM,> 25 µM,> 25 µM,> 25 µM,> 25 µM,> 25 µM,> 25,> 25 µM
CCOC(=O)C1=C(C)NC(C)=C(C(=O)OCCNC(=O)c2ccc(N=[N+]=[N-])cc2)C1c1ccccc1C(F)(F)F (stereo not given),–,20.5 µM,–,21.5 µM,–,21.5 µM,–,18.9 µM,–,21.5 µM,–,21.5 µM,–,21.5 µM,–,21.5 µM,–,12.2 µM,–,19.3 µM
Cc1cc(I)cc(CNCCN2CCOCC2)c1O,> 100 µM,> 100 µM,> 100 µM,> 100 µM,84.8 µM,> 100 µM,59.8 µM,> 100 µM,12.5 µM,> 100 µM,> 100 µM,> 100 µM,26.3 µM,> 100 µM,> 100 µM,> 100 µM,> 100 µM,> 100 µM,92.8,> 100 µM
C=C1C[C@@H](O)[C@@H](Br)C(C)(C)[C@]12CCC(C)(Br)C(Cl)C2 (stereo not given in full),18 µM,> 50 µM and 35.8 µM,29.9 µM,> 50 µM and 96.4 µM,19 µM,> 50 µM and 49.3 µM,20.3 µM,> 50 µM and 39.3 µM,22.5 µM,> 50 µM and 56 µM,0.107 µM,10.8 µM and 2.29 µM,18.7 µM,> 50 µM and 36 µM,16.5 µM,> 50 µM and 33.4 µM,16.8 µM,> 50 µM and 31.1 µM,17.4,> 50 µM and 32.1 µM
COc1cc(N2CCN(C(C)C)CC2)ccc1Nc1nc(Nc2ccc(F)cc2C(=O)NCC(O)CO)c2cc[nH]c2n1 (stereo not given),4.99 µM,> 25 µM,6.9 µM,> 25 µM,7.52 µM,> 25 µM,0.182 µM,2.09 µM,> 25 µM,> 25 µM,> 25 µM,> 25 µM,3.73 µM,> 25 µM,4.65 µM,> 25 µM,0.276 µM,> 25 µM,4.79,> 25 µM
O=C(CN1CCN(CCN2C(=O)c3cccc4cccc(c34)C2=O)CC1)Nc1ccc2ncsc2c1,5.52 µM,20.4 µM,43.3 µM,> 100 µM,5.12 µM,30.5 µM,5.24 µM,> 100 µM,6.2 µM,53.8 µM,6.31 µM,34.6 µM,5.92 µM,19.6 µM,7.47 µM,24 µM,4.65 µM,17.5 µM,3.96,18 µM
CCSc1nc(NC(C)c2ccccc2)c2cnn(CO)c2n1 (stereo not given),21.1 µM,> 100 µM,8.09 µM,99.4 µM,> 100 µM,> 100 µM,18.2 µM,97.1 µM,80.8 µM,> 100 µM,38.5 µM,> 100 µM,> 100 µM,> 100 µM,29.6 µM,84.9 µM,52.8 µM,> 100 µM,14.7,> 100 µM
CC(C)n1nc(C#Cc2cccc(O)c2)c2c(N)ncnc21,0.882 µM and 0.655 µM,5.5 µM and 5.03 µM,0.583 µM and 0.17 µM,1.88 µM and 0.632 µM,1.01 µM and 0.864 µM,3.38 µM and 4.09 µM,0.489 µM and 0.187 µM,2.35 µM and 0.774 µM,2.38 µM and 1.87 µM,24.7 µM and 7.09 µM,1.37 µM and 1.18 µM,12.3 µM and 13.9 µM,1.67 µM and 1.51 µM,14.5 µM and 11.1 µM,0.248 µM and 0.234 µM,1.38 µM and 0.917 µM,1.62 µM and 1.51 µM,50 µM and 11.9 µM,0.627,5.33 µM and 4.55 µM
O=C(NCCCl)NCCN1c2nc3ccccc3cc2Sc2cc3ccccc3nc21,1.57 µM,11.1 µM,0.962 µM,9.57 µM,2.04 µM,12 µM,0.722 µM,7.47 µM,1.61 µM,13 µM,0.719 µM,20.1 µM,3.28 µM,> 39.4 µM,0.968 µM,15.4 µM,1.02 µM,2.59 µM,4.23,> 53.3 µM
CCOC(=O)Nc1ccc2nc(N3CCCCCC3)sc2c1,0.204 µM,0.567 µM,4.53 µM,> 100 µM,4.7 µM,> 84.3 µM,6.15 µM,58.9 µM,1.03 µM,> 36.6 µM,3.49 µM,> 100 µM,4 µM,> 83.3 µM,1.35 µM,55.7 µM,0.857 µM,> 80.6 µM,1.83,13.2 µM
CCC(CC)c1cc(N[C@H]2CC[C@H](N)C2)n2nccc2n1,1.38 µM,3.76 µM,2.27 µM,9.44 µM,0.759 µM,> 100 µM,3.56 µM,> 100 µM,6.41 µM,> 100 µM,2.43 µM,> 100 µM,0.708 µM,> 100 µM,2.07 µM,6.24 µM,0.328 µM,> 100 µM,0.281,1.55 µM
CCNC(=O)Oc1ccc(/C(=C(\C)c2ccc(Cl)cc2)c2ccc(OCCN(CC)CC)cc2)cc1,3.44 µM,12.8 µM,3.72 µM,16.5 µM,2.16 µM,12.5 µM,3.16 µM,12.6 µM,6.8 µM,22.7 µM,3.89 µM,14.1 µM,11.1 µM,24.2 µM,1.7 µM,3.61 µM,1.13 µM,10.9 µM,13.3,28.1 µM
